In patent publication US9108921B2, “Therapeutic compounds and compositions” (AGIOS PHARMACEUTICALS, INC, priority 2014, dated 2015):

Columns and labels:
Type in all cases: biochemical
PKR WT = PKR WT (Homo sapiens, UniProt P30613); experiment: PKR WT enzymatic AC50 assay; conditions: wild type PKR
Experimental: (§1) • PKR or PKR mutant enzyme solution was diluted in assay buffer. • 2 μL of test compound was added into wells first, and then 180 μL reaction mix was added. • Reactions mixture with test compound was assembled except for ADP, and plates were stored for 60 minutes at room temperature. • 20 uL ADP was added to start reaction at room temperature and reaction progress was measured as changes in absorbance at 340 nm wavelength at room temperature.
(§2) Test Compound Preparation: • Test compound stock was made at 100× concentration in 100% DMSO (10 mM) • 1 to 3 dilutions were made for 11 points (i.e. 50 μl of first concentration added to 100 μl 100% DMSO to yield 3.33 mM, 50 μl of this added to 100 μl DMSO to yield 1.11 mM, and so forth) • 1 to 100 dilution into assay (2 μl in 200 μl) yielded starting concentration of 100 μM, decreasing 3 fold for 11 points. Assay Buffer: 100 mM KCl, 50 mM Tris 7.5, 5 mM MgCl2, 1 mM DTT, 0.03% BSA Reaction Mixture: PKR mutant enzyme: 80-400 ng/well; ADP: 0.22-1.65 mM; PEP: 0.1-0.5 mM; NADH: 180 uM; LDH: 0.5 units (Sigma#59023); DTT: 1 mM; BSA: 0.03%.

PKR R510Q = PKR R510Q (Homo sapiens, UniProt P30613, R510Q); experiment: PKR Mutant Assay, AC50 against PKR R510Q; conditions: mutant PKR R510Q enzyme
Experimental: as §1, §2

PKR R532W = PKR R532W (Homo sapiens, UniProt P30613, R532W); experiment: PKR Mutant Assay, AC50 against PKR R532W; conditions: mutant PKR R532W enzyme
Experimental: as §1, §2

PKR R510Q, sequence (P30613 whole entry R510Q): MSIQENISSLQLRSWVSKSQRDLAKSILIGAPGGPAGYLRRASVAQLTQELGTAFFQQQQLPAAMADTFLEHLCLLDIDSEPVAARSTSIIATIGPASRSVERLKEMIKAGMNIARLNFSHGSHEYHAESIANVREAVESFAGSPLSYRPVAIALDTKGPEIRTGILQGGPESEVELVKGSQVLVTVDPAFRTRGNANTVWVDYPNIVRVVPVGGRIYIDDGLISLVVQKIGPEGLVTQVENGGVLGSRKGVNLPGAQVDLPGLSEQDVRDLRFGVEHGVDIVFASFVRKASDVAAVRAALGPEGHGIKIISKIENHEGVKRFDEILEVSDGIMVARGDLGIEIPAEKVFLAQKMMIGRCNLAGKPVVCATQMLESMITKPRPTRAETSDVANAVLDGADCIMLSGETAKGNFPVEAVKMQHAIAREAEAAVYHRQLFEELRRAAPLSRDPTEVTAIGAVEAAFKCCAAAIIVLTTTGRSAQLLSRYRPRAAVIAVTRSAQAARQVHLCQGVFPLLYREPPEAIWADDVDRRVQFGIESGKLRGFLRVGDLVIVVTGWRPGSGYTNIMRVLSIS
PKR WT, sequence (P30613 whole entry): as the sequence (P30613 whole entry R510Q) above, with Q510R counted along it
PKR R532W, sequence (P30613 whole entry R532W): as the sequence (P30613 whole entry R510Q) above, with Q510R, R532W counted along it

Row | SMILES | AC50 (PKR WT) | AC50 (PKR R510Q) | AC50 (PKR R532W)
1 | CCOCC1(O)CCN(C(=O)c2ccc(NS(=O)(=O)c3cccc4cccnc34)cc2)CC1 [Compound 246, N-(4-(4-(ethoxymethyl)-4-hydroxypiperidine-1-carbonyl)phenyl)quinoline-8-sulfonamide] | 0.101 to 1 µM | 1.01 to 10 µM | < 0.1 µM
2 | O=C(c1ccc(NS(=O)(=O)c2cccc3nc(F)ccc23)cc1)N1CCC(O)(c2ccccc2Cl)CC1 [Compound 259, N-(4-(4-(2-chlorophenyl)-4-hydroxypiperidine-1-carbonyl)phenyl)-2-fluoroquinoline-5-sulfonamide] | 0.101 to 1 µM | 1.01 to 10 µM | 0.101 to 1 µM
3 | O=C(c1ccc(NS(=O)(=O)c2cccc3cccnc23)cc1)N1CCC(O)(CCO)CC1 [Compound 274] | 0.101 to 1 µM | 1.01 to 10 µM | 0.101 to 1 µM
4 | N#Cc1ccccc1C1(O)CCN(C(=O)c2ccc(NS(=O)(=O)c3cccc4cccnc34)cc2)CC1 [Compound 266, N-(4-(4-(2-cyanophenyl)-4-hydroxypiperidine-1-carbonyl)phenyl)quinoline-8-sulfonamide] | 0.101 to 1 µM | 1.01 to 10 µM | 0.101 to 1 µM
5 | Cc1cccc(C2(O)CCN(C(=O)c3ccc(NS(=O)(=O)c4cccc5cccnc45)cc3)CC2)n1 [Compound 265, N-[4-[4-hydroxy-4-(6-methylpyridin-2-yl)piperidine-1-carbonyl]phenyl]quinoline-8-sulfonamide] | 0.101 to 1 µM | 1.01 to 10 µM | 0.101 to 1 µM
6 | CC(C)CC1(O)CCN(C(=O)c2ccc(NS(=O)(=O)c3ccc(F)c4scnc34)cc2)CC1 [Compound 240, 7-fluoro-N-(4-(4-hydroxy-4-isobutylpiperidine-1-carbonyl)phenyl)benzo[d]thiazole-4-sulfonamide] | 0.101 to 1 µM | 0.101 to 1 µM | 0.101 to 1 µM
7 | O=C(c1ccc(NS(=O)(=O)c2cccc3nccnc23)cc1)N1CCC(O)(CCC(F)(F)F)CC1 [Compound 221, N-(4-(4-hydroxy-4-(3,3,3-trifluoropropyl)piperidine-1-carbonyl)phenyl)quinoxaline-5-sulfonamide] | < 0.1 µM | 0.101 to 1 µM | < 0.1 µM
8 | CC(O)CC1(O)CCN(C(=O)c2ccc(NS(=O)(=O)c3cccc4cccnc34)cc2)CC1 (stereo not drawn) [Compound 275] | 0.101 to 1 µM | 1.01 to 10 µM | 0.101 to 1 µM
9 | N#Cc1cc(C(=O)N2CCC(O)(c3ccccc3Cl)CC2)ccc1NS(=O)(=O)c1cccc2cccnc12 [Compound 273] | 0.101 to 1 µM | 1.01 to 10 µM | 0.101 to 1 µM
10 | O=C(c1c(F)cc(NS(=O)(=O)c2cccc3cccnc23)cc1F)N1CCC(O)(c2ccccc2Cl)CC1 [Compound 232, N-(4-(4-(2-chlorophenyl)-4-hydroxypiperidine-1-carbonyl)-3,5-difluorophenyl)quinoline-8-sulfonamide] | 0.101 to 1 µM | 0.101 to 1 µM | 0.101 to 1 µM
11 | O=C(c1ccc(NS(=O)(=O)c2cccc3cnccc23)cc1)N1CCC(O)(Cc2ccccc2)CC1 [Compound 283] | 0.101 to 1 µM | 1.01 to 10 µM | 0.101 to 1 µM
12 | COc1cccc(C2(O)CCN(C(=O)c3ccc(NS(=O)(=O)c4cccc5cccnc45)cc3)CC2)c1 [Compound 276] | 0.101 to 1 µM | 1.01 to 10 µM | 0.101 to 1 µM
13 | N#Cc1cc(NS(=O)(=O)c2cccc3cccnc23)ccc1C(=O)N1CCC(O)(c2ccccc2)CC1 [Compound 261, N-(3-cyano-4-(4-hydroxy-4-phenylpiperidine-1-carbonyl)phenyl)quinoline-8-sulfonamide] | 0.101 to 1 µM | 0.101 to 1 µM | 0.101 to 1 µM
14 | O=C(c1ccc(NS(=O)(=O)c2csc3cccnc23)cc1)N1CCC(O)(c2ccccc2Cl)CC1 [Compound 280] | 0.101 to 1 µM | 1.01 to 10 µM | 0.101 to 1 µM
15 | O=C(c1ccc(NS(=O)(=O)c2cccc3cccnc23)cc1)N1CCC(O)(Cc2cccnn2)CC1 [Compound 272] | 0.101 to 1 µM | 1.01 to 10 µM | 0.101 to 1 µM
16 | O=C(c1ccc(NS(=O)(=O)c2ccc(F)c3scnc23)cc1)N1CCC(O)(c2ccccc2Cl)CC1 [Compound 231] | 0.101 to 1 µM | 1.01 to 10 µM | 0.101 to 1 µM
17 | O=C(c1ccc(NS(=O)(=O)c2cccc(C(F)(F)F)c2)cc1)N1CCC(O)(Cc2ccccc2)CC1 [Compound 287] | 0.101 to 1 µM | – | 1.01 to 10 µM
18 | O=C(c1ccc(NS(=O)(=O)c2cccc(Cl)c2)cc1)N1CCC(O)(Cc2ccccc2)CC1 [Compound 281] | 0.101 to 1 µM | – | 0.101 to 1 µM

The next lines start with the values.

Row | AC50 (PKR WT) | AC50 (PKR R510Q) | AC50 (PKR R532W) | SMILES
19 | 1.01 to 10 µM | > 10 µM | 1.01 to 10 µM | O=C(c1ccc(NS(=O)(=O)c2cccc3ncccc23)cc1)N1CCC(O)(c2ccccc2)CC1 [Compound 300]
20 | 0.101 to 1 µM | – | 1.01 to 10 µM | O=C(c1ccc(NS(=O)(=O)c2ccc3c(c2)OCO3)cc1)N1CCC(O)(Cc2ccccc2)CC1 [Compound 288]
21 | 1.01 to 10 µM | > 10 µM | > 10 µM | O=C(c1ccc(NS(=O)(=O)c2cccc3ccnnc23)cc1)N1CCC(O)(c2ccccc2Cl)CC1 [Compound 313]
22 | 1.01 to 10 µM | > 10 µM | 1.01 to 10 µM | O=C(c1ccc(NS(=O)(=O)c2cccc3cccnc23)c(F)c1F)N1CCC(O)(c2ccccc2)CC1 [Compound 302]
23 | > 10 µM | > 10 µM | > 10 µM | O=C(c1ccc(NS(=O)(=O)c2c[nH]c3cccnc23)cc1)N1CCC(O)(c2ccccc2Cl)CC1 [Compound 316]
24 | 1.01 to 10 µM | > 10 µM | 1.01 to 10 µM | O=C(c1ccc(NS(=O)(=O)c2cccc3c2OC(F)(F)O3)cc1)N1CCC(O)(c2ccccc2Cl)CC1 [Compound 308]
25 | 1.01 to 10 µM | – | 1.01 to 10 µM | CN(C)CC1(O)CCN(C(=O)c2ccc(NS(=O)(=O)c3cccc4cccnc34)cc2)CC1 [Compound 301]
26 | 1.01 to 10 µM | – | > 10 µM | O=C(c1ccc(NS(=O)(=O)c2cccnc2)cc1)N1CCC(O)(Cc2ccccc2)CC1 [Compound 315]
27 | 1.01 to 10 µM | > 10 µM | 1.01 to 10 µM | O=C(c1ccc(NS(=O)(=O)c2cccc3cccnc23)cn1)N1CCC(O)(c2ccccc2)CC1 [Compound 298]
28 | > 10 µM | > 10 µM | > 10 µM | O=C(c1ccc(NS(=O)(=O)c2cccc3cccnc23)cc1)N1CCC(C(=O)O)(c2ccccc2)CC1 [Compound 320]
29 | 1.01 to 10 µM | > 10 µM | 1.01 to 10 µM | O=C(c1ccc(N[S+]([O-])c2cccc3cccnc23)cc1)N1CCC(O)(c2ccccc2Cl)CC1 (stereo not drawn) [Compound 311]
30 | 0.101 to 1 µM | 1.01 to 10 µM | 1.01 to 10 µM | CC(C)(O)CCC1(O)CCN(C(=O)c2ccc(NS(=O)(=O)c3cccc4cccnc34)cc2)CC1 [Compound 292]
31 | < 0.1 µM | < 0.1 µM | < 0.1 µM | CNc1nc2c(S(=O)(=O)Nc3ccc(C(=O)N4CCC(O)(c5ccccc5Cl)CC4)cc3)cccc2s1 [Compound 409]
32 | 0.101 to 1 µM | > 10 µM | 0.101 to 1 µM | O=C(c1ccc(NS(=O)(=O)c2cccc3scnc23)cc1)N1CCC(O)(c2cn[nH]c2)CC1 [Compound 410, N-[4-[4-hydroxy-4-(1H-pyrazol-4-yl)piperidine-1-carbonyl]phenyl]benzothiazole-4-sulfonamide]
33 | 1.01 to 10 µM | – | > 10 µM | CC(C)CC1(O)CCN(C(=O)c2ccc(NS(=O)(=O)c3cnc(O)c4cccnc34)cc2)CC1 [Compound 416]
34 | 1.01 to 10 µM | – | – | O=C(c1ccc(NS(=O)(=O)c2ccc(Cl)cc2)cc1)N1CCC(O)(Cc2ccccc2)CC1 [Compound 299]
35 | – | – | 1.01 to 10 µM | O=C(c1ccc(NS(=O)(=O)c2cccc3cccnc23)cc1)N1CCC(O)(CN2CCCC2)CC1 [Compound 327]
36 | > 10 µM | – | > 10 µM | O=C(c1ccc(NS(=O)(=O)c2cccc3cnccc23)cc1)N1CCC(O)(c2ccccc2)CC1 [Compound 319]
37 | > 10 µM | – | > 10 µM | CC(C)CC1(O)CCN(C(=O)c2ccc(NS(=O)(=O)c3cccc4snnc34)cc2)CC1 [Compound 419]
38 | 1.01 to 10 µM | – | 1.01 to 10 µM | O=C(c1ccc(NS(=O)(=O)c2cccc3nonc23)cc1)N1CCC(O)(Cc2ccccc2)CC1 [Compound 310]
39 | > 10 µM | – | – | N#Cc1cccc(S(=O)(=O)Nc2ccc(C(=O)N3CCC(O)(Cc4ccccc4)CC3)cc2)c1 [Compound 317]
40 | > 10 µM | – | > 10 µM | O=C(c1ccc(NS(=O)(=O)c2ccc(C(F)(F)F)cc2)cc1)N1CCC(O)(Cc2ccccc2)CC1 [Compound 321]
41 | – | 0.101 to 1 µM | 0.101 to 1 µM | CC(F)(F)CCC1(O)CCN(C(=O)c2ccc(NS(=O)(=O)c3cccc4scnc34)cc2)CC1 [Compound 440]
42 | – | 1.01 to 10 µM | 0.101 to 1 µM | CCOC(=O)C1(Cc2ccccc2)CCN(C(=O)c2ccc(NS(=O)(=O)c3cccc4cccnc34)cc2)CC1 [Compound 330]
43 | – | 1.01 to 10 µM | 0.101 to 1 µM | CC(C)CC1(O)CCN(C(=O)c2ccc(NS(=O)(=O)c3cccc4cncnc34)cc2)CC1 [Compound 441]
44 | > 10 µM | – | – | O=C(c1ncc(NS(=O)(=O)c2cccc3cccnc23)cn1)N1CCC(O)(c2ccccc2)CC1 [Compound 323]
